{
  "source": "paper PMC7555119",
  "about": "“Characterization of Novel Synthetic Polyphenols: Validation of Antioxidant and Vasculoprotective Activities” (Antioxidants, 2020)",
  "key": {"[1]": {"system": "NADPH oxidase activity in segments of aorta from C57BL6/J mice", "test": "NADPH oxidase activity in aortic segments stimulated ex vivo with IL-1β", "details": "IL-1β 10 ng/mL 6 h", "method": "Aortic segments from three-month-old C57BL6/J mice were incubated with IL-1β (10 ng/mL, 6 h, Sigma Aldrich) in the presence and in the absence of the different compounds that were added 30 min before stimulation.\nThe O2 production generated by NADPH oxidase was determined by a chemiluminescence assay. Briefly, endothelial cells or aortic segments were homogenized in phosphate buffer (50 mmol/L KH2PO4, 1 mmol/L EGTA, 150 mmol/L sucrose, pH 7.4). The reaction was started by the addition of a lucigenin (5 μmol/L) and NADPH (100 μmol/L; Sigma-Aldrich) mixture to the protein sample in a final volume of 250 μL. Chemiluminescence was determined every 2.4 s for 3 min in a microtiter plate luminometer (Enspire Perkin Elmer). Basal activity in the absence of NADPH was subtracted from each reading and normalized to protein concentration. Data were normalized vs. control situation."}, "[2]": {"system": "human dermal fibroblasts (HDF)", "test": "Cell viability, AlamarBlue assay", "type": "cell-based", "details": "24 h, AlamarBlue, non-linear fit", "method": "Cytotoxicity of selected antioxidant compounds was assessed using human dermal fibroblasts (HDF, Innoprot, P10856) and an AlamarBlue assay. Human fibroblasts were grown and maintained using Dulbecco’s Modified Eagle Medium high glucose (DMEM, Sigma Aldrich, D6171), supplemented with 10% Fetal Bovine Serum (FBS), 2% L-glutamine and 1% penicillin/streptomycin. Cells were incubated at 37 °C, 95% relative humidity and 5% CO2. Additionally, DMEM-high glucose, HEPES, no phenol red (Gibco, 2106329) was used to prepare the AlamarBlue solution. Stock solutions of the antioxidant compounds 3, 8, 15 and 17 were prepared in dimethyl sulfoxide (DMSO). Compound 7 was not soluble enough in DMSO to obtain a cell viability IC50 value. Serial dilutions of the antioxidant compounds were prepared using the previously mentioned stock solutions and DMEM. Final DMSO concentration was maintained lower than 1% v/v in the cell culture experiments. HDF were seeded at 9 × 10^4 cells/well in a 96-well plate and incubated for 24 h. The medium was replaced by the corresponding antioxidant solutions and incubated for an additional 24 h. Then, compounds were removed, cells were washed with Dulbecco’s Phosphate Buffered Saline (PBS, Sigma Aldrich) and treated with a 10% v/v AlamarBlue (Invitrogen) solution prepared in DMEM without phenol red. After 3 h of incubation, absorbance was monitored at 570 nm by a Multi-Detection Microplate Reader Synergy HT. Cells treated with DMEM without any antioxidant compound were used as the 100% viability control. Eight replicates were used for each antioxidant solution. IC50 values were obtained by a non-linear fit using the software GraphPad Prism 7."}, "[3]": {"test": "Aqueous thermodynamic solubility in H2O (UV)", "type": "physicochemical", "details": "water, thermodynamic from solid", "description": "4) Log P and aqueous solubility of selected compounds.\nTable S2. Theoretical Log P values and aqueous thermodynamic solubility measured for\nComp `Chemical Structure MW LogP Calc Aqueous Solubility a\na Thermodynamic solubility in H 2O (UV). […]"}},
  "data": [
    {"smiles": "O=C(Nc1ccc(O)cc1)N(c1ccc(O)cc1)c1ccc(O)cc1", "note": "[Compound 17, N,N-bis(4-Hydroxyphenyl)-N′-(4′-hydroxyphenyl)urea]", "values": [
      {"measurement": "effect on NADPH oxidase activity induced by IL-1β", "setting": "[1]", "result": "significant inhibition of the IL-1β effects"},
      {"measurement": "melting point", "result": "186 to 187 °C (dec.)"},
      {"measurement": "IC50", "setting": "[2]", "result": "> 1400", "unit": "µM"},
      {"measurement": "IC50", "setting": "[2]; Homo sapiens, Fibroblast", "result": 1790, "unit": "µM"},
      {"measurement": "solubility", "setting": "[3]", "result": "620 ± 10", "unit": "µg/mL"}
    ]}
  ]
}
